Laboratory results taken from patent publication US8216974B2, “Fluorine-containing organosulfur compound and pesticidal composition comprising the same” (Sumitomo Chemical Company, Limited, priority 2007, dated 2012).

Tests used:
[1] = test system: brown rice planthopper; assay: Test Example 6: foliar spray on rice plants versus comparative compound, brown rice planthopper; type: in vivo, Nilaparvata lugens; conditions: 175 ppm, sprayed 20 ml/cup on rice plants; 30 first-instar larvae released; counted after 6 days at 25° C.
Description: In this Test Example, as a comparative compound, a compound disclosed in JP-A 2005-179321 (Compound No. 37 in Table 2) and represented by the formula:
[drawing 112] (hereinafter, referred to as the comparative compound (1)) was used.
Each formulation of the present compound (6) and the comparative compound (1) was obtained according to Formulation Example 15. The formulation was diluted so that the active ingredient concentration was 175 ppm to obtain a test solution.
At the same time, 50 g of culture soil, Bonsol No. 2 (manufactured by Sumitomo Chemical Co., Ltd.) was put into a polyethylene cup, and 10 to 15 seeds of rice were planted therein. The rice plants were grown until the second foliage leaf was developed, and then cut so as to have the same height of 5 cm. The test solution was sprayed on the rice plants in an amount of 20 ml/cup. After the test solution sprayed on the rice plants was dried, the rice plants were placed in a plastic cup for the purpose of preventing test worms from escaping. Thirty first-instar larvae of brown rice planthopper were released into the cup, and the cup was sealed with a lid. Then the cup was placed in a greenhouse at 25° C. for 6 days. Then, the number of parasitic brown rice planthoppers on the rice plants was examined.

[2] = test system: Blattalla germanica; assay: Test Example 4: filter paper with sucrose bait, Blattalla germanica; type: in vivo; conditions: 500 ppm, 0.7 ml on filter paper; 2 male imagoes; after 6 days
Description: (§1) A formulation of any one of the present compounds (1) to (10) obtained according to Formulation Example 15 was diluted with water so that the active ingredient concentration was 500 ppm to obtain a test solution.
A filter paper having a diameter of 5.5 cm was spread on the bottom of a polyethylene cup having a diameter of 5.5 cm and 0.7 ml of the test solution was added dropwise onto the filter paper. As a bait 30 mg of sucrose was uniformly placed on the filter paper. Into the polyethylene cup, 2 male imagoes of Blattalla germanica were released and the cup was sealed with a lid. After 6 days, the number of surviving Blattalla germanica was examined and the death rate of the pest was calculated.

[3] = test system: Culex pipiens pallens; assay: Test Example 5: larvae in treated water, Culex pipiens pallens; type: in vivo; conditions: 24 h, active ingredient concentration 3.5 ppm in water, 20 last-instar larvae, one day after, read-out: pest death rate
Description: as §1
To 100 mL of ion-exchanged water, 0.7 ml of the test solution was added (active ingredient concentration: 3.5 ppm). Into the solution, 20 last-instar larvae of Culex pipiens pallens were released. One day after, the number of surviving Culex pipiens pallens was examined and the death rate of the pest was calculated.

Row | SMILES | number of the parasitic pests [1] | pest death rate [2] [%] | pest or weed control at 3.5 ppm [3] [%]
1 | N#CC(SCCC(F)(F)F)c1ccc(Cl)cc1 (stereo not drawn) [comparative compound (1), reference compound] | ≥ 21 | – | –
2 | NC(=O)C(F)(c1cc(F)c(F)c(F)c1)S(=O)(=O)CCC(F)(F)F (stereo not drawn) [present compound (1), 2-fluoro-2-(3,3,3-trifluoropropylsulfonyl)-2-(3,4,5-trifluorophenyl)acetamide] | – | 100 | ≥ 95
3 | CC(C(N)=O)(c1cc(F)c(F)c(F)c1)S(=O)(=O)CCC(F)(F)F (stereo not drawn) [present compound (2), 2-(3,4,5-trifluorophenyl)-2-(3,3,3-trifluoropropylsulfonyl)propaneamide] | – | 100 | –
4 | NC(=O)C(F)(c1ccc(Cl)c(F)c1)S(=O)(=O)CCC(F)(F)F (stereo not drawn) [present compound (3), 2-(4-chloro-3-fluorophenyl)-2-fluoro-2-(3,3,3-trifluoropropylsulfonyl)acetamide] | – | 100 | ≥ 95
5 | NC(=O)C(F)(c1ccc(Cl)cc1)S(=O)(=O)CCC(F)(F)F (stereo not drawn) [present compound (4), 2-(4-chlorophenyl)-2-fluoro-2-(3,3,3-trifluoropropylsulfonyl)acetamide] | – | 100 | ≥ 95
6 | NC(=O)C(F)(c1ccc(C(F)(F)F)cc1)S(=O)(=O)CCC(F)(F)F (stereo not drawn) [present compound (5), 2-fluoro-2-(3,3,3-trifluoropropylsulfonyl)-2-(4-trifluoromethylphenyl)acetamide] | – | 100 | ≥ 95
7 | NC(=O)C(SCCC(F)(F)F)c1ccc(Cl)cc1 (stereo not drawn) [present compound (6), 2-(4-chlorophenyl)-2-(3,3,3-trifluoropropylsulfanyl)acetamide] | ≤ 3 | – | –
8 | NC(=O)C(c1ccc(Cl)cc1)S(=O)(=O)CCC(F)(F)F (stereo not drawn) [present compound (7), 2-(4-chlorophenyl)-2-(3,3,3-trifluoropropylsulfonyl)acetamide] | – | – | ≥ 10
9 | NC(=O)C(Cl)(Cc1cccc(C(F)(F)F)c1)S(=O)(=O)CCC(F)(F)F (stereo not drawn) [present compound (9), 2-chloro-3-(3-trifluoromethylphenyl)-2-(3.3.3-trifluoropropylsulfonyl)propaneamide] | – | ≥ 50 | ≥ 10
10 | NC(=O)C(Cl)(Cc1ccccc1C(F)(F)F)S(=O)(=O)CCC(F)(F)F (stereo not drawn) [present compound (10), 2-chloro-3-(2-trifluoromethylphenyl)-2-(3,3,3-trifluoropropylsulfonyl)propaneamide] | – | – | ≥ 95
